The values that follow come from ChEMBL document CHEMBL1201862, “PubChem BioAssay data set” (2004).

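All cell lines were grown in 96-well plates and treated with compound for 48 hours. GI50 marks 50% less growth.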 The source made the active and inactive calls. Cut-off read from the data, not from the text of the source: active = GI50 up to about 1.1 µM and inactive = higher.

Test systems include A498; EKVX; HCT-15; HOP-62; LOX IMVI; MOLT-4; Malme-3M; NCI-H522; OVCAR-4; OVCAR-5; RPMI-8226; SF-268; SF-295; SK-MEL-2; SNB-19; SNB-75; TK-10; U-251; NCI/ADR-RES.
Common to all, as to assay: inhibition of tumour cell growth, NCI panel, 48 h

`C[n+]1c2ccccc2c(CNc2ccc(S(=O)(=O)N=C(N)N)cc2)c2ccccc21`: the GI50 is 17.4 µM (inactive) in the experiment on A498; 21 µM (inactive) in the experiment with EKVX; 10.2 µM in the experiment on HCT-15; 4.09 µM (inactive) in the experiment on HOP-62; 3.29 µM (inactive) with LOX IMVI; 0.311 µM (active) in the experiment on MOLT-4. The GI50 with Malme-3M was 13.6 µM (inactive); in the experiment with NCI-H522, 9.77 µM (inactive); in the experiment on OVCAR-4 it was 29.1 µM (inactive); in the experiment on OVCAR-5, 43.7 µM (inactive); in the experiment with RPMI-8226 it was 2.7 µM (inactive); in the experiment on SF-268, 7.06 µM (inactive). In addition, the GI50 in the experiment on SF-295 is 3.6 µM (inactive); with SK-MEL-2, 24.8 µM (inactive); with SNB-19, 4.05 µM (inactive); in the experiment on SNB-75, 4.13 µM (inactive); with TK-10, 29.4 µM (inactive); with U-251, 5.14 µM (inactive).
Turning to `O=C1NC(Cc2ccccc2)C(=O)N2CCCC12` (stereo unspecified), the GI50 in the experiment with A498 is > 100 µM (inactive); in the experiment on EKVX it was > 100 µM (inactive); with HCT-15 it was over 100 µM; in the experiment with HOP-62, > 100 µM (inactive); with LOX IMVI, > 100 µM (inactive); in the experiment with MOLT-4 it was > 100 µM (inactive). Also, the GI50 with Malme-3M, with NCI-H522, in the experiment on OVCAR-4, in the experiment on OVCAR-5, with RPMI-8226 and with SF-268 was > 100 µM (inactive) each time. Besides, the GI50 with SF-295, in the experiment on SK-MEL-2, with SNB-19, with SNB-75, in the experiment with TK-10 and in the experiment on U-251 was > 100 µM (inactive) in each case.
As for `N#CC(/C(=N\NC(N)=S)C(=O)NC1C2CC3CC(C2)CC1C3)c1ccc(Cl)cc1` (stereo unspecified), the GI50 with A498 is > 100 µM (inactive); in the experiment on EKVX, > 100 µM (inactive); in the experiment with HCT-15 it was over 100 µM; in the experiment on HOP-62, > 100 µM (inactive); in the experiment with LOX IMVI, > 100 µM (inactive); with MOLT-4 it was > 100 µM (inactive). Also, the GI50 with Malme-3M, with NCI-H522, in the experiment with OVCAR-4, in the experiment with OVCAR-5, in the experiment on RPMI-8226 and in the experiment with SF-268 was > 100 µM (inactive) each time. The GI50 in the experiment on SF-295, in the experiment with SK-MEL-2, in the experiment with SNB-19, with SNB-75, in the experiment on TK-10 and in the experiment with U-251 was > 100 µM (inactive) in each case.
In the case of `COC(=O)C(=O)C1(CCC(C)=O)c2ccccc2-c2ccccc21`, the GI50 in the experiment with A498 is 88.5 µM (inactive); with EKVX, > 100 µM (inactive); with HCT-15, 56.4 µM; in the experiment on HOP-62 it was 68.7 µM (inactive); in the experiment with LOX IMVI, 62.1 µM (inactive); with MOLT-4 it was 33.4 µM (inactive). The GI50 in the experiment on Malme-3M was 49.7 µM (inactive); with NCI-H522, 69.2 µM (inactive); with OVCAR-4 it was > 100 µM (inactive); with OVCAR-5, > 100 µM (inactive); in the experiment on RPMI-8226, 36.4 µM (inactive); in the experiment on SF-268, > 100 µM (inactive). Moreover, the GI50 was > 100 µM (inactive) in the experiment on SF-295; 83.4 µM (inactive) in the experiment with SK-MEL-2; > 100 µM (inactive) in the experiment on SNB-19; 93.3 µM (inactive) in the experiment on SNB-75; 71.3 µM (inactive) in the experiment on TK-10; 68.5 µM (inactive) in the experiment with U-251.
In the case of `Cc1cc2c(=O)cc(-c3ccc(C(=O)O)cc3)oc2c(C(N)=O)c1C`, the GI50 in the experiment with A498 was > 100 µM (inactive); with EKVX, > 100 µM (inactive); in the experiment on HCT-15, over 100 µM; with HOP-62, > 100 µM (inactive); in the experiment with LOX IMVI, > 100 µM (inactive); with MOLT-4, > 100 µM (inactive). The GI50 with Malme-3M, in the experiment on NCI-H522, in the experiment with OVCAR-4, in the experiment on OVCAR-5, in the experiment on RPMI-8226 and in the experiment with SF-268 was > 100 µM (inactive) each time. Also, the GI50 in the experiment with SF-295 is > 100 µM (inactive); with SK-MEL-2, > 100 µM (inactive); with SNB-19, > 100 µM (inactive); in the experiment on SNB-75, 28.9 µM (inactive); in the experiment with TK-10 it was > 100 µM (inactive); in the experiment with U-251, > 100 µM (inactive).
Turning to `CCCCC(C(=O)CCC(=O)Nc1ccc(Cl)cc1)C(=O)C(C)C` (stereo unspecified), the GI50 is > 100 µM (inactive) with A498; > 100 µM (inactive) in the experiment on EKVX; over 100 µM in the experiment with HCT-15; > 100 µM (inactive) in the experiment with HOP-62; 30.5 µM (inactive) in the experiment on LOX IMVI; > 100 µM (inactive) in the experiment with MOLT-4. Moreover, the GI50 in the experiment on Malme-3M, in the experiment with NCI-H522, in the experiment with OVCAR-4, in the experiment with OVCAR-5, in the experiment with RPMI-8226 and in the experiment on SF-268 was > 100 µM (inactive) each time. Moreover, the GI50 in the experiment on SF-295, in the experiment with SK-MEL-2, with SNB-19, with SNB-75, with TK-10 and in the experiment on U-251 was > 100 µM (inactive) throughout.
For the compound `N#CC1(C#N)C(c2ccccc2)C=CC12OCCCO2` (stereo unspecified), the GI50 with A498 is 48.6 µM (inactive); in the experiment with EKVX, 59.3 µM (inactive); with HOP-62, > 100 µM (inactive); with LOX IMVI, 40.4 µM (inactive); in the experiment on MOLT-4, 26.7 µM (inactive); in the experiment on Malme-3M, 42.2 µM (inactive). The GI50 was 16.3 µM (inactive) with NCI-H522; 59.4 µM (inactive) with OVCAR-4; 51.5 µM (inactive) in the experiment with OVCAR-5; 27.7 µM (inactive) with RPMI-8226; 28.4 µM (inactive) with SF-268; 76 µM (inactive) with SF-295. Further, the GI50 in the experiment on SK-MEL-2 is 72.4 µM (inactive); in the experiment on SNB-19 it was > 100 µM (inactive); with SNB-75 it was 42.9 µM (inactive); in the experiment on TK-10, 48.9 µM (inactive); in the experiment on U-251, 45.2 µM (inactive).
On to `COc1cccc(NC(=O)CC(=O)N2N=C(N(CCC#N)c3ccc(Cl)cc3)CC2c2ccccc2)c1` (stereo unspecified), for which the GI50 with A498 was > 100 µM (inactive); in the experiment on EKVX, > 100 µM (inactive); in the experiment with HCT-15, over 100 µM; in the experiment with HOP-62 it was > 100 µM (inactive); in the experiment on LOX IMVI it was > 100 µM (inactive); in the experiment on MOLT-4, > 100 µM (inactive). Moreover, the GI50 in the experiment on Malme-3M, in the experiment with NCI-H522, in the experiment on OVCAR-4, in the experiment on OVCAR-5, in the experiment with RPMI-8226 and in the experiment on SF-268 was > 100 µM (inactive) throughout. Besides, the GI50 with SF-295, with SK-MEL-2, in the experiment on SNB-19, in the experiment on SNB-75, in the experiment with TK-10 and with U-251 was > 100 µM (inactive) throughout.
Regarding `C[C@H]1NC(=O)C2CCCCN2C(=O)CN(C)C(=O)CNC(=O)C2CCCCN2C(=O)[C@@H](NC(=O)c2nc3ccccc3cc2O)[C@@H](C)NC(=O)C2CCCCN2C(=O)CN(C)C(=O)CNC(=O)[C@@H]2CCCCN2C(=O)C1NC(=O)c1nc2ccccc2cc1O` (stereo partly specified), the GI50 is 0.166 µM (active) in the experiment with A498; 0.668 µM (active) in the experiment on EKVX; 2.75 µM in the experiment with HCT-15; 0.251 µM (active) in the experiment on HOP-62; 0.169 µM (active) in the experiment with LOX IMVI; 2.59 µM (inactive) with MOLT-4. Besides, the GI50 was 0.182 µM (active) with Malme-3M; 0.106 µM (active) with NCI-H522; 0.389 µM (active) in the experiment with OVCAR-4; 1.91 µM (inactive) with OVCAR-5; 0.274 µM (active) in the experiment with RPMI-8226; 0.186 µM (active) in the experiment on SF-268. Also, the GI50 in the experiment with SF-295 is 0.0258 µM (active); in the experiment on SK-MEL-2 it was 0.0817 µM (active); with SNB-19, 0.241 µM (active); with SNB-75, 0.0598 µM (active); with TK-10, 0.525 µM (active); in the experiment on U-251, 0.0153 µM (active).
Take `CC(C)(C)c1ccc(Oc2ccc(C#N)c(C#N)c2)c(C(C)(C)C)c1`: the GI50 was > 63.5 µM (inactive) with A498; 58.2 µM (inactive) in the experiment on EKVX; 14.4 µM in the experiment with HCT-15; > 100 µM (inactive) with HOP-62; 30.6 µM (inactive) in the experiment with LOX IMVI; 17.4 µM (inactive) in the experiment on MOLT-4. Also, the GI50 with Malme-3M is > 100 µM (inactive); in the experiment with NCI-H522, 17.2 µM (inactive); in the experiment with OVCAR-4, 49.7 µM (inactive); with OVCAR-5, > 21 µM (inactive); with RPMI-8226, 17 µM (inactive); in the experiment with SF-268, 32.7 µM (inactive). The GI50 with SF-295 was > 58.9 µM (inactive); in the experiment on SK-MEL-2, 40.6 µM (inactive); with SNB-19, 49.5 µM (inactive); in the experiment with SNB-75, > 26.3 µM (inactive); in the experiment with TK-10, > 100 µM (inactive); in the experiment on U-251, 33.7 µM (inactive).
With `Fc1ccc2c3c([nH]c2c1)CCNC3`, the GI50 with A498 was 20.4 µM (inactive); in the experiment with EKVX, > 100 µM (inactive); in the experiment on HCT-15 it was over 100 µM; with HOP-62, > 100 µM (inactive); with LOX IMVI, > 100 µM (inactive); in the experiment with MOLT-4, > 100 µM (inactive). Further, the GI50 in the experiment with Malme-3M, in the experiment with NCI/ADR-RES, in the experiment with OVCAR-4, in the experiment on OVCAR-5, in the experiment on RPMI-8226 and in the experiment with SF-268 was > 100 µM (inactive) in each case. Also, the GI50 in the experiment on SF-295 is 67.8 µM (inactive); in the experiment with SNB-19 it was > 100 µM (inactive); in the experiment with SNB-75 it was > 100 µM (inactive); with TK-10, > 100 µM (inactive); in the experiment with U-251, > 100 µM (inactive).
